According to patent publication US20230203043A1, “NOVEL IMIDAZOPYRAZINE DERIVATIVES” (Hoffmann-La Roche Inc., priority 2020, published 2023):
Structures can show the parent of a compound that is named as a salt.

tested on: Acinetobacter baumannii ATCC17961; experiment: Antimicrobial susceptibility testing: 90% growth inhibitory concentration (IC90) determination in Iso-Sensitest broth, OD600 growth; format: cell-based; details: Acinetobacter baumannii, ATCC17961, 16 h, read-out: A. baumannii ATCC 17961 IC90 (uM), strain ATCC 17961, OD600 growth over 16 h
Outline: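 Compounds were twofold serially diluted in DMSO across 10 points (e.g. 50 to 0.097 μM final) and inoculated at ~5×10^(5) CFU/ml. Plates incubated at 35±2° C, with OD600 read every 20 minutes over 16 h. IC90 was derived from growth inhibition during logarithmic growth.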

Row | Structure (SMILES) | IC90 [µM]
1 | CCc1cc(Nc2nccn3c(-c4cn(CC#N)nc4C(F)(F)F)cnc23)ccc1C(=O)NCC(=O)NC1CC(N)C1 (stereo not drawn) [Example 675, N-[2-[(3-aminocyclobutyl)amino]-2-oxo-ethyl]-4-[[3-[1-(cyanomethyl)-3-(trifluoromethyl)pyrazol-4-yl]imidazo[1,2-a]pyrazin-8-yl]amino]-2-ethyl-benzamide formate] | 0.315
2 | CCc1cc(Nc2nccn3c(-c4cn(CC5CC(F)(F)C5)nc4C(F)(F)F)cnc23)ccc1C(=O)NCCOCCN [Example 304, N-[2-(2-aminoethoxy)ethyl]-4-[[3-[1-[(3,3-difluorocyclobutyl)methyl]-3-(trifluoromethyl)pyrazol-4-yl]imidazo[1,2-a]pyrazin-8-yl]amino]-2-ethylbenzamide formate] | 0.253
3 | CCc1cc(Nc2nccn3c(-c4c[nH]nc4C(F)(F)F)cnc23)ccc1C(=O)NCCNC(=O)[C@H]1CC[C@H](N)C1 [Example 588, N-(2-((1S,3S)-3-aminocyclopentane-1-carboxamido)ethyl)-2-ethyl-4-((3-(3-(trifluoromethyl)-1H-pyrazol-4-yl)imidazo[1,2-a]pyrazin-8-yl)amino)benzamide formate] | 0.46
4 | Cc1cc(Nc2nccn3c(-c4cn(CC#N)nc4C(F)(F)F)cnc23)ccc1C(=O)NCC(=O)N[C@@H]1CCNC1 [Example 750, 4-[[3-[1-(cyanomethyl)-3-(trifluoromethyl)pyrazol-4-yl]imidazo[1,2-a]pyrazin-8-yl]amino]-2-methyl-N-[2-oxo-2-[[(3R)-pyrrolidin-3-yl]amino]ethyl]benzamide formate] | 0.625
5 | Cc1cc(Nc2nccn3c(-c4c[nH]nc4C(F)(F)F)cnc23)ccc1C(=O)N1CCN(C(=O)C2(O)CCNCC2)CC1 [Example 460, formic acid; [4-(4-hydroxypiperidine-4-carbonyl)piperazin-1-yl]-[2-methyl-4-[[3-[3-(trifluoromethyl)-1H-pyrazol-4-yl]imidazo[1,2-a]pyrazin-8-yl]amino]phenyl]methanone] | 0.896
6 | CCc1cc(Nc2nccn3c(-c4cn(CC#N)nc4C(F)(F)F)cnc23)ccc1C(=O)NCC(=O)N1CC2CC1CN2 (stereo not drawn) [Example 512, 4-[[3-[1-(cyanomethyl)-3-(trifluoromethyl)pyrazol-4-yl]imidazo[1,2-a]pyrazin-8-yl]amino]-N-[2-(2,5-diazabicyclo[2.2.1]heptan-2-yl)-2-oxo-ethyl]-2-ethyl-benzamide formate] | 0.341
7 | NC1CCN(C(=O)N2CCN(C(=O)c3ccc(Nc4nccn5c(-c6c[nH]nc6C(F)(F)F)cnc45)cc3Cl)CC2)CC1 [Example 285, [4-(4-aminopiperidine-1-carbonyl)piperazin-1-yl]-[2-chloro-4-[[3-[3-(trifluoromethyl)-1H-pyrazol-4-yl]imidazo[1,2-a]pyrazin-8-yl]amino]phenyl] methanone formate] | 0.185
8 | CNC(=O)c1ccc(Nc2nccn3c(-c4cn(CC5CCN(Cc6ccccc6)C5)nc4C(F)(F)F)cnc23)cc1Cl (stereo not drawn) [Example 593, 4-((3-(1-((1-benzylpyrrolidin-3-yl)methyl)-3-(trifluoromethyl)-1H-pyrazol-4-yl)imidazo [1,2-a]pyrazin-8-yl)amino)-2-chloro-N-methylbenzamide formate] | 0.234
9 | CCc1cc(Nc2nccn3c(-c4cn(CC#N)nc4C(F)(F)F)cnc23)ccc1C(=O)NCCNC(=O)[C@@H]1CC[C@@H](N)C1 [Example 587, N-(2-((1R,3R)-3-aminocyclopentane-1-carboxamido)ethyl)-4-((3-(1-(cyanomethyl)-3-(trifluoromethyl)-1H-pyrazol-4-yl)imidazo[1,2-a]pyrazin-8-yl)amino)-2-ethylbenzamide formate] | 0.221

same assay, conditions: Acinetobacter baumannii, ATCC17961, 16 h, strain ATCC 17961, OD600 growth over 16 h, read-out: A. baumannii ATCC 17961 IC90

Row | Structure (SMILES) | IC90 [µM]
10 | CCc1cc(Nc2nccn3c(-c4cn(COC)nc4C(F)F)cnc23)ccc1C(=O)N1CCN(C(=O)[C@H](C)N)CC1 [Example 767, (S)-2-amino-1-(4-(4-((3-(3-(difluoromethyl)-1-(methoxymethyl)-1H-pyrazol-4-yl)imidazo[1,2-a]pyrazin-8-yl)amino)-2-ethylbenzoyl)piperazin-1-yl)propan-1-one] | 0.904
11 | N#CCn1cc(-c2cnc3c(Nc4ccc(C(=O)NCC(=O)N5CC[C@H](N)C5)c(Cl)c4)nccn23)c(C(F)(F)F)n1 [Example 656, N-[2-[(3S)-3-aminopyrrolidin-1-yl]-2-oxo-ethyl]-2-chloro-4-[[3-[1-(cyanomethyl)-3-(trifluoromethyl)pyrazol-4-yl]imidazo[1,2-a]pyrazin-8-yl]amino] benzamide formate] | 0.266
12 | CCc1cc(Nc2nccn3c(-c4cn(CCOC(F)(F)F)nc4C(F)(F)F)cnc23)ccc1C(=O)NCCOCCN [Example 622, N-(2-(2-aminoethoxy)ethyl)-2-ethyl-4-((3-(1-(2-(trifluoromethoxy)ethyl)-3-(trifluoromethyl)-1H-pyrazol-4-yl)imidazo[1,2-a]pyrazin-8-yl)amino)benzamide] | 0.148
13 | C#CCNC(=O)c1c(C)cc(Nc2nccn3c(-c4cn(CCF)nc4C(F)(F)F)cnc23)cc1F [Example 42, 2-fluoro-4-[[3-[1-(2-fluoroethyl)-3-(trifluoromethyl)pyrazol-4-yl]imidazo[1,2-a]pyrazin-8-yl]amino]-6-methyl-N-prop-2-ynylbenzamide] | 0.354
14 | O=C(N[C@H]1CCN(C(=O)[C@@H]2C[C@@H](O)CN2)C1)c1ccc(Nc2nccn3c(-c4c[nH]nc4C(F)(F)F)cnc23)cc1Cl [Example 313, 2-chloro-N-[(3S)-1-[(2S,4R)-4-hydroxypyrrolidine-2-carbonyl]pyrrolidin-3-yl]-4-[[3-[3-(trifluoromethyl)-1H-pyrazol-4-yl]imidazo[1,2-a]pyrazin-8-yl]amino]benzamide] | 0.995
15 | CCc1cc(Nc2nccn3c(-c4cn(CC(F)F)nc4C(F)(F)F)cnc23)ccc1C(=O)NCCOCCN1CCCC1 [Example 621, 4-((3-(1-(2,2-difluoroethyl)-3-(trifluoromethyl)-1H-pyrazol-4-yl)imidazo[1,2-a]pyrazin-8-yl)amino)-2-ethyl-N-(2-(2-(pyrrolidin-1-yl)ethoxy)ethyl) benzamide formate] | 0.144
16 | N#CCn1cc(-c2cnc3c(Nc4ccc(C(=O)N5CCN(CC(=O)N[C@H]6CCNC6)CC5)c(Cl)c4)nccn23)c(C(F)(F)F)n1 [Example 605, (S)-2-(4-(2-chloro-4-((3-(1-(cyanomethyl)-3-(trifluoromethyl)-1H-pyrazol-4-yl)imidazo[1,2-a]pyrazin-8-yl)amino)benzoyl)piperazin-1-yl)-N-(pyrrolidin-3-yl) acetamide formate] | 0.496
17 | O=C(NC1CN(C(=O)c2ccc(Nc3nccn4c(-c5c[nH]nc5C(F)(F)F)cnc34)cc2Cl)C1)[C@@H]1C[C@@H](O)CN1 [Example 175, (2S,4R)-N-[1-[2-chloro-4-[[3-[3-(trifluoromethyl)-1H-pyrazol-4-yl]imidazo[1,2-a]pyrazin-8-yl]amino]benzoyl]azetidin-3-yl]-4-hydroxypyrrolidine-2-carboxamide] | 0.357
18 | N#CCn1cc(-c2cnc3c(Nc4ccc(C(=O)NCCNCC(=O)NCCN)c(Cl)c4)nccn23)c(C(F)(F)F)n1 [Example 815, N-(2-((2-((2-aminoethyl)amino)-2-oxoethyl)amino)ethyl)-2-chloro-4-((3-(1-(cyanomethyl)-3-(trifluoromethyl)-1H-pyrazol-4-yl)imidazo[1,2-α]pyrazin-8-yl)amino)benzamide formate] | 0.18
19 | CCc1cc(Nc2nccn3c(-c4cn(CC(F)F)nc4C(F)(F)F)cnc23)ccc1C(=O)NCCNC(=O)[C@@H]1CC[C@@H](N)C1 [Example 490, N-(2-((1R,3R)-3-aminocyclopentane-1-carboxamido)ethyl)-4-((3-(1-(2,2-difluoroethyl)-3-(trifluoromethyl)-1H-pyrazol-4-yl)imidazo[1,2-a]pyrazin-8-yl)amino)-2-ethylbenzamide formate] | 0.196
20 | NC1CN(C(=O)CNC(=O)c2ccc(Nc3nccn4c(-c5c[nH]nc5C(F)(F)F)cnc34)cc2Cl)C1 [Example 141, N-[2-(3-aminoazetidin-1-yl)-2-oxoethyl]-2-chloro-4-[[3-[3-(trifluoromethyl)-1H-pyrazol-4-yl]imidazo[1,2-a]pyrazin-8-yl]amino]benzamide] | 4.05
21 | CCc1cc(Nc2nccn3c(-c4c[nH]nc4C(F)(F)F)cnc23)ccc1C(=O)NCC1CCN(CC2CNC2)C1 (stereo not drawn) [Example 827, N-((1-(azetidin-3-ylmethyl)pyrrolidin-3-yl)methyl)-2-ethyl-4-((3-(3-(trifluoromethyl)-1H-pyrazol-4-yl)imidazo[1,2-α]pyrazin-8-yl)amino)benzamide bis(2,2,2-trifluoroacetate)] | 0.57
22 | C=CCn1cc(-c2cnc3c(Nc4ccc(C(=O)N[C@@H](C)CN)c(CC)c4)nccn23)c(C(F)(F)F)n1 [Example 63, N-[(2S)-1-aminopropan-2-yl]-2-ethyl-4-[[3-[1-prop-2-enyl-3-(trifluoromethyl)pyrazol-4-yl]imidazo[1,2-a]pyrazin-8-yl]amino]benzamide] | 0.27

same assay, conditions: read-out: A. baumannii ATCC 17961 IC90, strain ATCC 17961, OD600 growth over 16 h, formate

Row | Structure (SMILES) | IC90 [µM]
23 | NC1CC(C(=O)N2CCN(C(=O)c3ccc(Nc4nccn5c(-c6c[nH]nc6C(F)(F)F)cnc45)cc3Cl)CC2)C1 (stereo not drawn) [Example 330, [4-(3-aminocyclobutanecarbonyl)piperazin-1-yl]-[2-chloro-4-[[3-[3-(trifluoromethyl)-1H-pyrazol-4-yl]imidazo[1,2-a]pyrazin-8-yl]amino]phenyl]methanone formate] | 0.275

same assay, conditions: strain ATCC 17961, OD600 growth over 16 h, read-out: A. baumannii ATCC 17961 IC90

Row | Structure (SMILES) | IC90 [µM]
24 | N#CCn1cc(-c2cnc3c(Nc4ccc(C(=O)N5CCN(C(=O)NCCN)CC5)c(Cl)c4)nccn23)c(C(F)(F)F)n1 [Example 258, N-(2-aminoethyl)-4-[2-chloro-4-[[3-[1-(2-cyanomethyl)-3-(trifluoromethyl)pyrazol-4-yl]imidazo[1,2-a]pyrazin-8-yl]amino]benzoyl] piperazine-1-carboxamide formate] | 0.398
